Laboratory results as given in ChEMBL document CHEMBL5608180, “DNA G-quadruplexes in the genome of Trypanosoma cruzi as potential therapeutic targets for Chagas disease: Dithienylethene ligands as effective antiparasitic agents” (Eur J Med Chem, 2024).

System: not listed separately
Test: Selectivity index, ratio of IC50 for cytotoxicity against human MRC5 cells to IC50 for antiparasitic activity against epimastigote form of Trypanosoma cruzi DA (TcI)
Format: toxicity, cell-based
Settings: read-out: Ratio IC50

SMILES	selectivity ratio
C[C@]12SC(c3ccc(CN4CCCC4)cc3)=CC1=C1CCCC1=C1C=C(c3ccc(CN4CCCC4)cc3)S[C@@]12C	< 1
C[C@]12SC(c3ccc(N4CCNCC4)cc3)=CC1=C1CCCC1=C1C=C(c3ccc(N4CCNCC4)cc3)S[C@@]12C	< 1
C[C@]12SC(c3ccc(-c4ccncc4)cc3)=CC1=C1CCCC1=C1C=C(c3ccc(-c4ccncc4)cc3)S[C@@]12C	< 1
Cc1sc(-c2ccc(N3CCNCC3)cc2)cc1C1=C(c2cc(-c3ccc(N4CCNCC4)cc3)sc2C)CCC1	< 1
Cc1sc(-c2cccc3c2ccc[n+]3C)cc1C1=C(c2cc(-c3cccc4c3ccc[n+]4C)sc2C)CCC1	1.4
C[C@]12SC(c3ccncc3)=CC1=C1CCCC1=C1C=C(c3ccncc3)S[C@@]12C	< 1
Cc1sc(-c2ccc(-c3cc[n+](C)cc3)cc2)cc1C1=C(c2cc(-c3ccc(-c4cc[n+](C)cc4)cc3)sc2C)CCC1	< 1

System: Trypanosoma cruzi
Test: Antiparasitic activity against epimastigote form of Trypanosoma cruzi SOL(TcV) assessed as inhibition of parasite growth incubated for 96 hrs followed by incubation in dark with resazurin for 4 to 6 hrs by resazurin dye based fluorescence analysis
Format: functional, organism-based
Settings: not given

SMILES	IC50 [µM]
O=C(Cn1ccnc1[N+](=O)[O-])NCc1ccccc1 [BENZNIDAZOLE]	11.2
C[C@]12SC(c3ccc(CN4CCCC4)cc3)=CC1=C1CCCC1=C1C=C(c3ccc(CN4CCCC4)cc3)S[C@@]12C	> 50
C[C@]12SC(c3ccc(N4CCNCC4)cc3)=CC1=C1CCCC1=C1C=C(c3ccc(N4CCNCC4)cc3)S[C@@]12C	> 50
C[C@]12SC(c3ccc(-c4ccncc4)cc3)=CC1=C1CCCC1=C1C=C(c3ccc(-c4ccncc4)cc3)S[C@@]12C	> 50
Cc1sc(-c2ccc(N3CCNCC3)cc2)cc1C1=C(c2cc(-c3ccc(N4CCNCC4)cc3)sc2C)CCC1	30.8
Cc1sc(-c2cccc3c2ccc[n+]3C)cc1C1=C(c2cc(-c3cccc4c3ccc[n+]4C)sc2C)CCC1	20.4
C[C@]12SC(c3ccncc3)=CC1=C1CCCC1=C1C=C(c3ccncc3)S[C@@]12C	> 18.3
Cc1sc(-c2ccc(-c3cc[n+](C)cc3)cc2)cc1C1=C(c2cc(-c3ccc(-c4cc[n+](C)cc4)cc3)sc2C)CCC1	37.1

System: Trypanosoma cruzi
Test: Antiparasitic activity against epimastigote form of Trypanosoma cruzi BM Lopez (TcIa) assessed as inhibition of parasite growth incubated for 96 hrs followed by incubation with resazurin for 4 to 6 hrs by resazurin dye based fluorescence analysis
Format: functional, organism-based
Settings: not given

SMILES	IC50 [µM]
O=C(Cn1ccnc1[N+](=O)[O-])NCc1ccccc1 [BENZNIDAZOLE]	6.3
C[C@]12SC(c3ccc(CN4CCCC4)cc3)=CC1=C1CCCC1=C1C=C(c3ccc(CN4CCCC4)cc3)S[C@@]12C	> 50
C[C@]12SC(c3ccc(N4CCNCC4)cc3)=CC1=C1CCCC1=C1C=C(c3ccc(N4CCNCC4)cc3)S[C@@]12C	> 50
C[C@]12SC(c3ccc(-c4ccncc4)cc3)=CC1=C1CCCC1=C1C=C(c3ccc(-c4ccncc4)cc3)S[C@@]12C	60.1
Cc1sc(-c2ccc(N3CCNCC3)cc2)cc1C1=C(c2cc(-c3ccc(N4CCNCC4)cc3)sc2C)CCC1	29.8
Cc1sc(-c2cccc3c2ccc[n+]3C)cc1C1=C(c2cc(-c3cccc4c3ccc[n+]4C)sc2C)CCC1	22.7
C[C@]12SC(c3ccncc3)=CC1=C1CCCC1=C1C=C(c3ccncc3)S[C@@]12C	> 25.6
Cc1sc(-c2ccc(-c3cc[n+](C)cc3)cc2)cc1C1=C(c2cc(-c3ccc(-c4cc[n+](C)cc4)cc3)sc2C)CCC1	25.2

System: not listed separately
Test: Selectivity index, ratio of IC50 for cytotoxicity against human MRC5 cells to IC50 for antiparasitic activity against epimastigote form of Trypanosoma cruzi Y (TcII)
Format: toxicity, cell-based
Settings: read-out: Ratio IC50

SMILES	selectivity ratio
O=C(Cn1ccnc1[N+](=O)[O-])NCc1ccccc1 [BENZNIDAZOLE]	2.3
C[C@]12SC(c3ccc(CN4CCCC4)cc3)=CC1=C1CCCC1=C1C=C(c3ccc(CN4CCCC4)cc3)S[C@@]12C	< 1
C[C@]12SC(c3ccc(N4CCNCC4)cc3)=CC1=C1CCCC1=C1C=C(c3ccc(N4CCNCC4)cc3)S[C@@]12C	< 1
C[C@]12SC(c3ccc(-c4ccncc4)cc3)=CC1=C1CCCC1=C1C=C(c3ccc(-c4ccncc4)cc3)S[C@@]12C	< 1
Cc1sc(-c2ccc(N3CCNCC3)cc2)cc1C1=C(c2cc(-c3ccc(N4CCNCC4)cc3)sc2C)CCC1	< 1
Cc1sc(-c2cccc3c2ccc[n+]3C)cc1C1=C(c2cc(-c3cccc4c3ccc[n+]4C)sc2C)CCC1	< 1
C[C@]12SC(c3ccncc3)=CC1=C1CCCC1=C1C=C(c3ccncc3)S[C@@]12C	< 1
Cc1sc(-c2ccc(-c3cc[n+](C)cc3)cc2)cc1C1=C(c2cc(-c3ccc(-c4cc[n+](C)cc4)cc3)sc2C)CCC1	< 1

System: not listed separately
Test: Cytotoxicity against human MRC5 cells
Format: toxicity, cell-based
Settings: not given

SMILES	IC50 [µM]
O=C(Cn1ccnc1[N+](=O)[O-])NCc1ccccc1 [BENZNIDAZOLE]	47.2
C[C@]12SC(c3ccc(CN4CCCC4)cc3)=CC1=C1CCCC1=C1C=C(c3ccc(CN4CCCC4)cc3)S[C@@]12C	22.5
C[C@]12SC(c3ccc(N4CCNCC4)cc3)=CC1=C1CCCC1=C1C=C(c3ccc(N4CCNCC4)cc3)S[C@@]12C	4.3
C[C@]12SC(c3ccc(-c4ccncc4)cc3)=CC1=C1CCCC1=C1C=C(c3ccc(-c4ccncc4)cc3)S[C@@]12C	4.9
Cc1sc(-c2ccc(N3CCNCC3)cc2)cc1C1=C(c2cc(-c3ccc(N4CCNCC4)cc3)sc2C)CCC1	8
Cc1sc(-c2cccc3c2ccc[n+]3C)cc1C1=C(c2cc(-c3cccc4c3ccc[n+]4C)sc2C)CCC1	20.5
C[C@]12SC(c3ccncc3)=CC1=C1CCCC1=C1C=C(c3ccncc3)S[C@@]12C	3.3
Cc1sc(-c2ccc(-c3cc[n+](C)cc3)cc2)cc1C1=C(c2cc(-c3ccc(-c4cc[n+](C)cc4)cc3)sc2C)CCC1	2.2

System: not listed separately
Test: Selectivity index, ratio of IC50 for cytotoxicity against human MRC5 cells to IC50 for antiparasitic activity against trypomastigote form of Trypanosoma cruzi SOL (TcV)
Format: toxicity, cell-based
Settings: read-out: Ratio IC50

SMILES	selectivity ratio
O=C(Cn1ccnc1[N+](=O)[O-])NCc1ccccc1 [BENZNIDAZOLE]	< 1

System: Trypanosoma cruzi
Test: Antiparasitic activity against epimastigote form of Trypanosoma cruzi DA (TcI) assessed as inhibition of parasite growth incubated for 96 hrs followed by incubation with resazurin for 4 to 6 hrs by resazurin dye based fluorescence analysis
Format: functional, organism-based
Settings: not given

SMILES	IC50 [µM]
C[C@]12SC(c3ccc(CN4CCCC4)cc3)=CC1=C1CCCC1=C1C=C(c3ccc(CN4CCCC4)cc3)S[C@@]12C	40.1
C[C@]12SC(c3ccc(N4CCNCC4)cc3)=CC1=C1CCCC1=C1C=C(c3ccc(N4CCNCC4)cc3)S[C@@]12C	32
C[C@]12SC(c3ccc(-c4ccncc4)cc3)=CC1=C1CCCC1=C1C=C(c3ccc(-c4ccncc4)cc3)S[C@@]12C	36.6
Cc1sc(-c2ccc(N3CCNCC3)cc2)cc1C1=C(c2cc(-c3ccc(N4CCNCC4)cc3)sc2C)CCC1	13.9
Cc1sc(-c2cccc3c2ccc[n+]3C)cc1C1=C(c2cc(-c3cccc4c3ccc[n+]4C)sc2C)CCC1	14.4
C[C@]12SC(c3ccncc3)=CC1=C1CCCC1=C1C=C(c3ccncc3)S[C@@]12C	30.2
Cc1sc(-c2ccc(-c3cc[n+](C)cc3)cc2)cc1C1=C(c2cc(-c3ccc(-c4cc[n+](C)cc4)cc3)sc2C)CCC1	28.4

System: Trypanosoma cruzi
Test: Antiparasitic activity against epimastigote form of Trypanosoma cruzi Y(TcII) assessed as inhibition of parasite growth incubated for 96 hrs followed by incubation with resazurin for 4 to 6 hrs by resazurin dye based fluorescence analysis
Format: functional, organism-based
Settings: not given

SMILES	IC50 [µM]
O=C(Cn1ccnc1[N+](=O)[O-])NCc1ccccc1 [BENZNIDAZOLE]	20.3
C[C@]12SC(c3ccc(CN4CCCC4)cc3)=CC1=C1CCCC1=C1C=C(c3ccc(CN4CCCC4)cc3)S[C@@]12C	> 34
C[C@]12SC(c3ccc(N4CCNCC4)cc3)=CC1=C1CCCC1=C1C=C(c3ccc(N4CCNCC4)cc3)S[C@@]12C	> 50
C[C@]12SC(c3ccc(-c4ccncc4)cc3)=CC1=C1CCCC1=C1C=C(c3ccc(-c4ccncc4)cc3)S[C@@]12C	42.8
Cc1sc(-c2ccc(N3CCNCC3)cc2)cc1C1=C(c2cc(-c3ccc(N4CCNCC4)cc3)sc2C)CCC1	29.5
Cc1sc(-c2cccc3c2ccc[n+]3C)cc1C1=C(c2cc(-c3cccc4c3ccc[n+]4C)sc2C)CCC1	22.8
C[C@]12SC(c3ccncc3)=CC1=C1CCCC1=C1C=C(c3ccncc3)S[C@@]12C	13.9
Cc1sc(-c2ccc(-c3cc[n+](C)cc3)cc2)cc1C1=C(c2cc(-c3ccc(-c4cc[n+](C)cc4)cc3)sc2C)CCC1	14

System: not listed separately
Test: Selectivity index, ratio of IC50 for cytotoxicity against human MRC5 cells to IC50 for antiparasitic activity against epimastigote form of Trypanosoma cruzi BM Lopez (TcIa)
Format: toxicity, cell-based
Settings: read-out: Ratio IC50

SMILES	selectivity ratio
O=C(Cn1ccnc1[N+](=O)[O-])NCc1ccccc1 [BENZNIDAZOLE]	7.5
C[C@]12SC(c3ccc(CN4CCCC4)cc3)=CC1=C1CCCC1=C1C=C(c3ccc(CN4CCCC4)cc3)S[C@@]12C	< 1
C[C@]12SC(c3ccc(N4CCNCC4)cc3)=CC1=C1CCCC1=C1C=C(c3ccc(N4CCNCC4)cc3)S[C@@]12C	< 1
C[C@]12SC(c3ccc(-c4ccncc4)cc3)=CC1=C1CCCC1=C1C=C(c3ccc(-c4ccncc4)cc3)S[C@@]12C	< 1
Cc1sc(-c2ccc(N3CCNCC3)cc2)cc1C1=C(c2cc(-c3ccc(N4CCNCC4)cc3)sc2C)CCC1	< 1
Cc1sc(-c2cccc3c2ccc[n+]3C)cc1C1=C(c2cc(-c3cccc4c3ccc[n+]4C)sc2C)CCC1	< 1
C[C@]12SC(c3ccncc3)=CC1=C1CCCC1=C1C=C(c3ccncc3)S[C@@]12C	< 1
Cc1sc(-c2ccc(-c3cc[n+](C)cc3)cc2)cc1C1=C(c2cc(-c3ccc(-c4cc[n+](C)cc4)cc3)sc2C)CCC1	< 1

System: not listed separately
Test: Selectivity index, ratio of IC50 for cytotoxicity against human MRC5 cells to IC50 for antiparasitic activity against epimastigote form of Trypanosoma cruzi SOL (TcV)
Format: toxicity, cell-based
Settings: read-out: Ratio IC50

SMILES	selectivity ratio
O=C(Cn1ccnc1[N+](=O)[O-])NCc1ccccc1 [BENZNIDAZOLE]	4.2
C[C@]12SC(c3ccc(CN4CCCC4)cc3)=CC1=C1CCCC1=C1C=C(c3ccc(CN4CCCC4)cc3)S[C@@]12C	< 1
C[C@]12SC(c3ccc(N4CCNCC4)cc3)=CC1=C1CCCC1=C1C=C(c3ccc(N4CCNCC4)cc3)S[C@@]12C	< 1
C[C@]12SC(c3ccc(-c4ccncc4)cc3)=CC1=C1CCCC1=C1C=C(c3ccc(-c4ccncc4)cc3)S[C@@]12C	< 1
Cc1sc(-c2ccc(N3CCNCC3)cc2)cc1C1=C(c2cc(-c3ccc(N4CCNCC4)cc3)sc2C)CCC1	< 1
Cc1sc(-c2cccc3c2ccc[n+]3C)cc1C1=C(c2cc(-c3cccc4c3ccc[n+]4C)sc2C)CCC1	1
C[C@]12SC(c3ccncc3)=CC1=C1CCCC1=C1C=C(c3ccncc3)S[C@@]12C	< 1
Cc1sc(-c2ccc(-c3cc[n+](C)cc3)cc2)cc1C1=C(c2cc(-c3ccc(-c4cc[n+](C)cc4)cc3)sc2C)CCC1	< 1

System: Trypanosoma cruzi
Test: Antiparasitic activity against trypomastigote form of Trypanosoma cruzi SOL (MHOM/ES/2008/SOL; DTU V) assessed as inhibition of parasite growth incubated for 96 hrs followed by incubation in dark with resazurin for 4 to 6 hrs by resazurin dye based fluorescence analysis
Format: functional, organism-based
Settings: not given

SMILES	IC50 [µM]
O=C(Cn1ccnc1[N+](=O)[O-])NCc1ccccc1 [BENZNIDAZOLE]	57.1
